We go through 22 compounds from patent publication US9040565B2, “1H-benzimidazole-5-carboxamides as anti-inflammatory agents” (Orexo AB, priority 2008, dated 2015).

For the assay, the target named is T1, recombinant human mPGES-1 (Homo sapiens, UniProt O14684).
T1 construct: made in house; host or cells: Rosetta E. coli (microsomal/membrane fraction)
T1 sequence (O14684 1-152): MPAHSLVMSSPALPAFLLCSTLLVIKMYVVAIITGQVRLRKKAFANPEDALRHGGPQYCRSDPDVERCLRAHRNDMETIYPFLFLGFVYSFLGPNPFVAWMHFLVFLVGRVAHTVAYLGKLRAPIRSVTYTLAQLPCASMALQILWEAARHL
In words: mPGES-1 inhibition, HTRF detection of PGE2 (Biological Test). The format is biochemical. The method, then: Microsomes from Rosetta E. coli bacteria expressing recombinant human mPGES-1 is dissolved in 0.1 M KPi pH 7.4 buffer containing 2.5 mM GSH. 50 μl of the enzyme is subsequently dispensed in a 384-well plate. 0.5 μl of the inhibitor dissolved in DMSO at is thereafter added to each well and incubated for 25 minutes at room temperature.
Subsequently, 2 μl of PGH2 dissolved in an appropriate solvent is added to each well and after one minute the acidified stop solution containing FeCl2 is added. 4 μl of the total volume is transferred to a separate plate and diluted 750-fold in two separate steps before HTRF detection of PGE2.
The HTRf detection is performed by the use of a commercially available kit from CisBio essentially according to the manufacturer's protocol. Briefly, 10 μl of the diluted sample is transferred to a white 384-well plate. 5 μl of d2 and 5 μl Eu3+-Cryptate labeled anti-PGE2 is added to each well containing samples by the use of a Multidrop. The plate is covered with a plastic self-adhesive film, centrifuged at 1200 rpm for 1 minute and subsequently stored at +4° C. over night.
After over night incubation the fluorescence is measured by the use of an appropriate microplate reader. The fluorescence of europium cryptate, and d2 are measured using the following excitation and emission wavelength, europium cryptate: λmax^ex=307 nm, λmax^em=620 nm and d2: λmax^ex=620 nm, λmax^em=665 nm), respectively. The extent of the specific FRET is measured as a ratio of the emission intensity at 665 nm vs. that at 620 nm. A standard curve using synthetic PGE2 is used to quantify the amount of PGE2 in unknown samples.
(Time-resolved FRET reads energy transfer from a long-lived donor to a nearby acceptor.)

A word on the inhibition: it is the share of the control response that was lost under treatment. On to `CCOc1cc2[nH]c(Nc3c(Cl)cncc3Cl)nc2cc1C(=O)NC1CCC(C)(C)CC1` [Example 669, 2-(3,5-Dichloropyridin-4-ylamino)-N-(4,4-dimethyl-cyclohexyl)-6-ethoxy-1H-benzimidazole-5-carboxamide], for which the inhibition at 10 µM worked out at 100%.

`CCOc1cc2c(cc1C(=O)NC1CCC(C)(C)CC1)nc(Nc1c(Cl)cncc1Cl)n2C` [Example 670, 2-(3,5-Dichloropyridin-4-ylamino)-N-(4,4-dimethyl-cyclohexyl)-6-ethoxy-1-methyl-1H-benzimidazole-5-carboxamide]: the inhibition at 10 µM was 100%.

Take `COCCOc1cc2c(cc1C(=O)NC1CCC(C)(C)CC1)nc(Nc1c(Cl)cncc1Cl)n2C` [Example 671, 2-(3,5-Dichloropyridin-4-ylamino)-N-(4,4-dimethyl-cyclohexyl)-6-(2-methoxy-ethoxy)-1-methyl-1H-benzimidazole-5-carboxamide]: the inhibition at 10 µM amounted to 100%. With `CN(C)c1cc2c(cc1C(=O)NC1CCC(C)(C)CC1)nc(Nc1c(Cl)cncc1Cl)n2C` [Example 672, 2-(3,5-Dichloropyridin-4-ylamino)-N-(4,4-dimethyl-cyclohexyl)-6-dimethylamino-1-methyl-1H-benzimidazole-5-carboxamide] the figure was 100%; with `CC1(C)CCC(NC(=O)c2cc3nc(Nc4c(Cl)cncc4Cl)[nH]c3cc2F)CC1` [Example 673, 2-(3,5-Dichloro-pyridin-4-yl-amino)-6-fluoro-N-(4,4-dimethyl-cyclohex-1-yl)-1H-benzimidazole-5-carboxamide], 100%. With `Cn1c(Nc2c(Cl)cncc2Cl)nc2cc(C(=O)NC3CCC(C)(C)CC3)c(F)cc21` [Example 674, 2-(3,5-Dichloropyridin-4-ylamino)-N-(4,4-dimethyl-cyclohex-1-yl)-6-fluoro-1-methyl-1H-benzimidazole-5-carboxamide] the figure was 100%. As to `O=C(N[C@H]1CC[C@H](C(F)(F)F)CC1)c1cc2nc(Nc3c(Cl)cncc3Cl)[nH]c2cc1OCC(F)(F)F` [Example 675, 2-(3,5-Dichloro-pyridin-4-yl-amino)-6-(2,2,2-trifluoro-ethoxy)-N-(trans-4-trifluoromethyl-cyclohex-1-yl)-1H-benzimidazole-5-carboxamide], the inhibition at 10 µM was 100%.

As to `O=C(Nc1ccc(Br)cc1)c1cc2nc(Nc3c(Cl)cncc3Cl)[nH]c2cc1OCC(F)(F)F` [Example 676, 2-(3,5-Dichloropyridin-4-ylamino)-N-(4-bromophenyl)-6-(2,2,2-trifluoroethoxy)-1H-benzimidazole-5-carboxamide], the inhibition at 10 µM turned out to be 100%.

`O=C(N[C@H]1CC[C@H](C(F)(F)F)CC1)c1cc2nc(Nc3c(Cl)cncc3Cl)[nH]c2cc1OCCF` [Example 677, 2-(3,5-Dichloropyridin-4-ylamino)-N-(trans-4-trifluoromethyl-cyclohex-1-yl)-6-(2-fluoroethoxy)-1H-benzimidazole-5-carboxamide]: the inhibition at 10 µM turned out to be 100%.

With `O=C(Nc1ccc(Br)cc1)c1cc2nc(Nc3c(Cl)cncc3Cl)[nH]c2cc1OCCF` [Example 678, 2-(3,5-Dichloropyridin-4-ylamino)-N-(4-bromophenyl)-6-(2-fluoroethoxy)-1H-benzimidazole-5-carboxamide], the inhibition at 10 µM amounted to 100%. In the case of `COc1cc2c(cc1C(=O)Nc1ccc(Br)cc1)nc(Nc1c(Cl)cncc1Cl)n2C` [Example 679, 2-(3,5-Dichloro-pyridin-4-ylamino)-6-methoxy-N-(4-bromophenyl)-1-methyl-1H-benzimidazole-5-carboxamide] it was 100%; in that of `COc1cc2[nH]c(Nc3c(Cl)cncc3Cl)nc2cc1C(=O)Nc1cc(C(F)(F)F)ccn1` [Example 680, 2-(3,5-Dichloropyridin-4-ylamino)-N-(4-trifluoromethyl-pyridin-2-yl)-6-methoxy-1H-benzimidazole-5-carboxamide], 100%; in that of `COc1cc2[nH]c(Nc3c(Cl)cncc3Cl)nc2cc1C(=O)Nc1cc(C(F)(F)F)cc(C)n1` [Example 681, 2-(3,5-Dichloro-pyridin-4-ylamino)-6-methoxy-N-(6-methyl-4-trifluoromethyl-pyridin-2-yl)-1H-benzimidazole-5-carboxamide], 100%. As for `COc1cc2[nH]c(Nc3c(Cl)cncc3Cl)nc2cc1C(=O)Nc1ccc(Br)cn1` [Example 682, 2-(3,5-Dichloro-pyridin-4-ylamino)-N-(5-bromo-pyridin-2-yl)-6-methoxy-1H-benzimidazole-5-carboxamide], the inhibition at 10 µM came to 99%. For `COc1cc2[nH]c(Nc3c(Cl)cncc3Cl)nc2cc1C(=O)Nc1ccc(C2CC2)cn1` [Example 684, 2-(3,5-Dichloro-pyridin-4-ylamino)-N-(5-cyclopropyl-pyridin-2-yl)-6-methoxy-1H-benzimidazole-5-carboxamide], the inhibition at 10 µM stood at 98%.

Consider `COCCOc1cc2[nH]c(Nc3c(Cl)cncc3Cl)nc2cc1C(=O)Nc1ccc(Br)cc1` [Example 685, 2-(3,5-Dichloro-pyridin-4-ylamino)-6-(2-methoxy-ethoxy)-N-(4-bromo-phenyl)-1H-benzimidazole-5-carboxamide], for which the inhibition at 10 µM came out at 98%. In the case of `COCCOc1cc2[nH]c(Nc3c(Cl)cncc3Cl)nc2cc1C(=O)NCc1ncccc1C(F)(F)F` [Example 686, 2-(3,5-Dichloro-pyridin-4-ylamino)-N-((3-trifluoromethyl-pyridin-2-yl)-methyl)-6-(2-methoxy-ethoxy)-1H-benzimidazole-5-carboxamide] it was 99%; in that of `CN(C)CCOc1cc2[nH]c(Nc3c(Cl)cncc3Cl)nc2cc1C(=O)Nc1ccc(Br)cc1` [Example 687, 2-(3,5-Dichloro-pyridin-4-ylamino)-6-(2-dimethylamino-ethoxy)-N-(4-bromo-phenyl)-1H-benzimidazole-5-carboxamide], 96%; in that of `COc1cc2[nH]c(Nc3c(Cl)cncc3Cl)nc2cc1C(=O)NCc1ncccc1C1CCC1` [Example 688, 2-(3,5-Dichloro-pyridin-4-ylamino)-N-((3-cyclobutyl-pyridin-2-yl)-methyl)-6-methoxy-1H-benzimidazole-5-carboxamide], 100%. In the case of `CCOc1cc2[nH]c(Nc3c(Cl)cncc3Cl)nc2cc1C(=O)NCc1ccccc1C(F)(F)F` [Example 689, 2-(3,5-Dichloropyridin-4-ylamino)-N-((2-trifluoromethyl-phen-1-yl)-methyl)-6-ethoxy-1H-benzimidazole-5-carboxamide] it was 100%. In the case of `CCOc1cc2[nH]c(Nc3c(Cl)cncc3Cl)nc2cc1C(=O)N[C@H]1CC[C@H](C(F)(F)F)CC1` [Example 690, 2-(3,5-Dichloropyridin-4-ylamino)-N-(trans-4-trifluoromethyl-cyclohex-1-yl)-6-ethoxy-1H-benzimidazole-5-carboxamide] it was 100%. On to `CCOc1cc2[nH]c(Nc3c(Cl)cncc3Cl)nc2cc1C(=O)NCC(F)(F)C(F)(F)C(F)(F)C(F)(F)F` [Example 691, 2-(3,5-Dichloropyridin-4-ylamino)-N-(2,2,3,3,4,4,5,5,5-nonafluoropentyl)-6-ethoxy-1H-benzimidazole-5-carboxamide], for which the inhibition at 10 µM turned out to be 97%.
